In the NIST ThermoML archive (doi:10.1016/j.jct.2019.02.004):
Numbers after ± are expanded uncertainties.

Experiments:
[1] = Crystal; DTA
[2] = Molar enthalpy of transition or fusion; settings: Crystal; DSC

Structure (SMILES): CC(=O)Nc1ccc(Cl)cc1 [N(4-chlorophenyl)ethanamide]
- Normal melting temperature [1]: 175.7 ± 1.1 °C
- Molar enthalpy of transition or fusion [2]: 27.1 ± 0.98 kJ/mol
